Columns and labels:
Format in all cases: cell-based
[1] = tested on: Wnt activity (Sp5-Luc reporter, SW480 colon carcinoma cells); assay: Screening assay for Wnt activity: Sp5-Luc reporter gene assay in SW480 colon carcinoma cells; details: Homo sapiens; for EC50: Sp5-Luc reporter, SW480 cells, overnight incubation; for inhibition at 10 µM: SW480, read-out: percent inhibition at 10 μM
Text: The screening assay for Wnt activity is described as follows. Reporter cell lines can be generated by stably transducing cancer cell lines (e.g., colon cancer) or primary cells (e.g., IEC-6 intestinal cells) with a lentiviral construct that includes a Wnt-responsive promoter driving expression of the firefly luciferase gene.
SW480 colon carcinoma cells were transduced with a lentiviral vector expressing luciferase with a human Sp5 promoter consisting of a sequence of eight TCF/LEF binding sites. SW480 cells stably expressing the Sp5-Luc reporter gene and a hygromycin resistance gene were selected by treatment with 150 μg/mL of hygromycin for 7 days. These stably transduced SW480 cells were expanded in cell culture and used for all further screening activities. […] For Sp5-Luc reporter gene assays, the cells were plated at 4,000 cells/well in 384-well plates with medium containing 1% fetal bovine serum and incubated overnight at 37° C. and 5% CO2. Following incubation, 20 μl of BrightGlo luminescence reagent (Promega) was added to each well of the 384-well assay plates. The plates were placed on an orbital shaker for 2 min and then luminescence was quantified using the Envision (Perkin Elmer) plate reader. Readings were normalized to DMSO only treated cells, and normalized activities were utilized for EC50 calculations using the dose-response log (inhibitor) vs. response-variable slope (four parameters) nonlinear regression feature available in GraphPad Prism 5.0 (or Dotmatics).

[2] = tested on: SW480 colon cancer cells; assay: Cell viability assay (CellTiter-Blue) in SW480 colon cancer cells; details: Homo sapiens; for EC50: 96 h, SW480 cell viability, four days; for inhibition at 10 µM: SW480, read-out: percent inhibition at 10 μM
Experimental: Representative compounds were screened using the following assay procedure to assess the effect on cell viability as described below.
Approximately 2×10^3 SW480 colon cancer cells were seeded into each well and allowed to incubate in the presence or absence of compound for four days at 37° C./5% CO2. Eight replicates of DMSO-treated cells served as controls and cells treated with compound were performed in duplicate.
After incubation, 20 μL of CellTiter-Blue (Promega) was added to each well allowed to incubate for approximately 3 hours. This reagent was a buffered solution which contains resazurin, metabolically active cells were able to reduce rezarurin (blue) into resorufin (pink) which was highly fluorescent. This measured fluorescence was used as a readout for cell viability.

[3] = tested on: primary human fibroblasts derived from IPF patients (LL29 cells) treated with TGF-β1; assay: Inhibition of the fibrotic process: αSMA staining in TGF-β1 treated LL29 fibroblasts; details: Fibroblast; for EC50: 96 h, % αSMA positive LL29 cells, TGF-β1 20 ng/mL, 4 days; for inhibition at 10 µM: read-out: percent inhibition at 10 μM
Experimental: Representative compounds were screened using primary human fibroblasts (derived from IPF patients) treated with TGF-β1 to determine their ability to inhibit the fibrotic process.
LL29 cells are plated at 1,500 cells/well in 80 μL/well F12 medium supplemented with 1% Fetal Bovine Serum. […] Wells treated with TGF-β1 and containing DMSO were used as controls. […] Following incubation for 4 days, SYTOX green nucleic acid stain (Life Technologies [Thermo Fisher Scientific]) was added to the wells at a final concentration of 1 μM and incubated at room temperature for 30 min.

[4] = tested on: IL-6 (THP-1 cells); assay: IL-6 inhibition in LPS-stimulated THP-1 monocytes (HTRF); details: Homo sapiens; for inhibition at 10 µM: THP-1, read-out: percent inhibition at 10 μM; for EC50: IL-6, THP-1 cells, LPS 500 ng/mL, 22 hours
Experimental: Compound Screening: THP-1 cells were cultured in basal media with 1% FBS for 24 hours before the start of the assay. […] THP-1 cells were plated at 5000 cells/well in the 384-well plates and incubated at 37° C. for 2 h. 500 ng/mL of LPS was added after 2 hours and cells were incubated for another 22 hours at 37° C. Plates were spun in a centrifuge for 1 minute at […] and a mixture of anti-IL6 XL665, and anti-IL6 Cryptate diluted in reconstitution buffer (Cisbio Inc.) was added to each well. Following incubation for 3 hrs at room temperature, Homogeneous Time-Resolved Fluorescence (HTRF) was measured using the Envision (Perkin Elmer) at 665 nm and […]. The ratio of fluorescence at 665 nm to 620 nm was used as a readout for IL6 quantification. All samples were processed in duplicate. Readings were normalized to DMSO treated cells and normalized activities were utilized for EC50 calculations using the dose-response log (inhibitor) vs. response-variable slope (four parameters) nonlinear regression feature available in GraphPad Prism 5.0 (or Dotmatics).

## c1cc(-c2cc3c(-c4cc5c(-c6ccncc6)nccc5[nH]4)n[nH]c3cn2)ccn1 [Compound 130, 5-(Pyridin-4-yl)-3-(4-(pyridin-4-yl)-1H-pyrrolo[3,2-c]pyridin-2-yl)-1H-pyrazolo[3,4-c]pyridine]
[1]
  EC50: 418 nM
[2]
  EC50: > 10000 nM
  inhibition at 10 µM: 36.6%
[3]
  EC50: 96 nM
[4]
  inhibition at 10 µM: 0%
  EC50: > 10000 nM

## CN1CCN(c2nccc3[nH]c(-c4n[nH]c5cnc(-c6cncc(NC(=O)CC7CCNCC7)c6)cc45)cc23)CC1 [Compound 641, N-(5-(3-(4-(4-Methylpiperazin-1-yl)-1H-pyrrolo[3,2-c]pyridin-2-yl)-1H-pyrazolo[3,4-c]pyridin-5-yl)pyridin-3-yl)-2-(piperidin-4-yl)acetamide]
[1]
  inhibition at 10 µM: 7.9%
  EC50: > 10000 nM
[2]
  EC50: > 10000 nM
  inhibition at 10 µM: 4.4%
[3]
  EC50: 5120 nM
[4]
  inhibition at 10 µM: 14.4%
  EC50: > 10000 nM

## CC(C)CC(=O)Nc1cncc(-c2cc3c(-c4cc5c(N6CCCCC6)nccc5[nH]4)n[nH]c3cn2)c1 [Compound 170, 3-Methyl-N-(5-(3-(4-(piperidin-1-yl)-1H-pyrrolo[3,2-c]pyridin-2-yl)-1H-pyrazolo[3,4-c]pyridin-5-yl)pyridin-3-yl)butanamide]
[1]
  EC50: 1250 nM
[2]
  EC50: 1500 nM
[3]
  EC50: 2360 nM
[4]
  EC50: 1780 nM

## O=C(Nc1cncc(-c2cc3c(-c4cc5c(-c6cccc(F)c6)nccc5[nH]4)n[nH]c3cn2)c1)c1ccccc1 [Compound 11, N-(5-(3-(4-(3-Fluorophenyl)-1H-pyrrolo[3,2-c]pyridin-2-yl)-1H-pyrazolo[3,4-c]pyridin-5-yl)pyridin-3-yl)benzamide]
[1]
  EC50: 3820 nM
[2]
  EC50: > 10000 nM
  inhibition at 10 µM: 34.7%
[3]
  EC50: > 10000 nM
  inhibition at 10 µM: 0%
[4]
  inhibition at 10 µM: 26.9%
  EC50: > 10000 nM

## c1cncc(-c2cc3c(-c4cc5c(N6CCCCC6)nccc5[nH]4)n[nH]c3cn2)c1 [Compound 172, 3-(4-(Piperidin-1-yl)-1H-pyrrolo[3,2-c]pyridin-2-yl)-5-(pyridin-3-yl)-1H-pyrazolo[3,4-c]pyridine]
[1]
  EC50: 632 nM
[2]
  EC50: > 10000 nM
  inhibition at 10 µM: 10.8%
[3]
  EC50: > 10000 nM
  inhibition at 10 µM: 0%
[4]
  inhibition at 10 µM: 0%
  EC50: > 10000 nM

## O=C(Nc1cncc(-c2cc3c(-c4cc5c(-c6cccc(F)c6)nccc5[nH]4)n[nH]c3cn2)c1)C1CCCCC1 [Compound 23, N-(5-(3-(4-(3-Fluorophenyl)-1H-pyrrolo[3,2-c]pyridin-2-yl)-1H-pyrazolo[3,4-c]pyridin-5-yl)pyridin-3-yl)cyclohexanecarboxamide]
[1]
  EC50: 1230 nM
[2]
  EC50: 1440 nM
[3]
  EC50: 678 nM
[4]
  EC50: 2030 nM

## CC(C)Nc1cncc(-c2cc3c(-c4cc5c(-c6ccc(F)cc6)nccc5[nH]4)n[nH]c3cn2)c1 [Compound 40, 5-(3-(4-(4-Fluorophenyl)-1H-pyrrolo[3,2-c]pyridin-2-yl)-1H-pyrazolo[3,4-c]pyridin-5-yl)-N-isopropylpyridin-3-amine]
[1]
  EC50: 343 nM
[2]
  EC50: 773 nM
[3]
  EC50: 56 nM
[4]
  EC50: 380 nM

## CCCC(=O)Nc1cncc(-c2cc3c(-c4cc5c(-c6ccoc6)nccc5[nH]4)n[nH]c3cn2)c1 [Compound 325, N-(5-(3-(4-(Furan-3-yl)-1H-pyrrolo[3,2-c]pyridin-2-yl)-1H-pyrazolo[3,4-c]pyridin-5-yl)pyridin-3-yl)butyramide]
[1]
  EC50: 1100 nM
[2]
  EC50: > 10000 nM
  inhibition at 10 µM: 31.2%
[3]
  EC50: 1740 nM
[4]
  EC50: 2380 nM

## CC(C)(C)C(=O)Nc1cncc(-c2cc3c(-c4cc5c(-c6cccc(F)c6)nccc5[nH]4)n[nH]c3cn2)c1 [Compound 8, N-(5-(3-(4-(3-Fluorophenyl)-1H-pyrrolo[3,2-c]pyridin-2-yl)-1H-pyrazolo[3,4-c]pyridin-5-yl)pyridin-3-yl)pivalamide]
[1]
  EC50: 1180 nM
[2]
  EC50: 1720 nM
[3]
  EC50: 627 nM
[4]
  EC50: 940 nM

## c1cc2[nH]c(-c3n[nH]c4cnc(-c5cncc(CN6CCCC6)c5)cc34)cc2c(N2CCCCC2)n1 [Compound 182, 3-(4-(Piperidin-1-yl)-1H-pyrrolo[3,2-c]pyridin-2-yl)-5-(5-(pyrrolidin-1-ylmethyl)pyridin-3-yl)-1H-pyrazolo[3,4-c]pyridine]
[1]
  inhibition at 10 µM: 12.7%
  EC50: > 10000 nM
[2]
  EC50: > 10000 nM
  inhibition at 10 µM: 13%
[3]
  EC50: > 10000 nM
  inhibition at 10 µM: 0%
[4]
  inhibition at 10 µM: 0%
  EC50: > 10000 nM

## CC(C)Nc1cncc(-c2cc3c(-c4cc5c(N6CCCCC6)nccc5[nH]4)n[nH]c3cn2)c1 [Compound 180, N-Isopropyl-5-(3-(4-(piperidin-1-yl)-1H-pyrrolo[3,2-c]pyridin-2-yl)-1H-pyrazolo[3,4-c]pyridin-5-yl)pyridin-3-amine]
[1]
  EC50: 2450 nM
[2]
  EC50: 4160 nM
[3]
  EC50: 2600 nM
[4]
  EC50: 3390 nM

## CC(C)CC(=O)Nc1cncc(-c2cc3c(-c4cc5c(-c6cc(F)cc(CNS(C)(=O)=O)c6)nccc5[nH]4)n[nH]c3cn2)c1 [Compound 478, N-(5-(3-(4-(3-Fluoro-5-(methylsulfonamidomethyl)phenyl)-1H-pyrrolo[3,2-c]pyridin-2-yl)-1H-pyrazolo[3,4-c]pyridin-5-yl)pyridin-3-yl)-3-methylbutanamide]
[1]
  inhibition at 10 µM: 38.7%
  EC50: > 10000 nM
[2]
  EC50: > 10000 nM
  inhibition at 10 µM: 6.3%
[3]
  EC50: > 10000 nM
  inhibition at 10 µM: 29%
[4]
  inhibition at 10 µM: 41.3%
  EC50: > 10000 nM

## O=C(Cc1ccccc1)Nc1cncc(-c2cc3c(-c4cc5c(N6CCCCC6)nccc5[nH]4)n[nH]c3cn2)c1 [Compound 178, 2-Phenyl-N-(5-(3-(4-(piperidin-1-yl)-1H-pyrrolo[3,2-c]pyridin-2-yl)-1H-pyrazolo[3,4-c]pyridin-5-yl)pyridin-3-yl)acetamide]
[1]
  EC50: 4230 nM
[2]
  EC50: 6500 nM
[3]
  EC50: > 10000 nM
  inhibition at 10 µM: 0%
[4]
  EC50: 9320 nM

## c1cncc(-c2cc3c(-c4cc5c(-c6ccoc6)nccc5[nH]4)n[nH]c3cn2)c1 [Compound 312, 3-(4-(Furan-3-yl)-1H-pyrrolo[3,2-c]pyridin-2-yl)-5-(pyridin-3-yl)-1H-pyrazolo[3,4-c]pyridine]
[1]
  EC50: 1030 nM
[2]
  EC50: 844 nM
[3]
  EC50: 294 nM
[4]
  EC50: 1010 nM

## O=C(Cc1ccccc1)Nc1cncc(-c2cc3c(-c4cc5c(-c6ccccc6F)nccc5[nH]4)n[nH]c3cn2)c1 [Compound 66, N-(5-(3-(4-(2-Fluorophenyl)-1H-pyrrolo[3,2-c]pyridin-2-yl)-1H-pyrazolo[3,4-c]pyridin-5-yl)pyridin-3-yl)-2-phenylacetamide]
[1]
  EC50: 2000 nM
[2]
  EC50: 1850 nM
[3]
  EC50: 3310 nM
[4]
  EC50: 3250 nM

## CC(C)CC(=O)Nc1cncc(-c2cc3c(-c4cc5c(-c6cccnc6)nccc5[nH]4)n[nH]c3cn2)c1 [Compound 86, 3-Methyl-N-(5-(3-(4-(pyridin-3-yl)-1H-pyrrolo[3,2-c]pyridin-2-yl)-1H-pyrazolo[3,4-c]pyridin-5-yl)pyridin-3-yl)butanamide]
[1]
  inhibition at 10 µM: 29.9%
  EC50: > 10000 nM
[2]
  EC50: > 10000 nM
  inhibition at 10 µM: 3.6%
[3]
  EC50: 1920 nM
[4]
  inhibition at 10 µM: 0%
  EC50: > 10000 nM
